In patent US9085572B2, “4-(pyridin-3-yl)-2(pyridin-2yl)-1,2-dihydro-3H-pyrazol-3-one derivatives as specific HIF-pyrolyl-4-hydroxylase inhibitors for treating cardiovascular and haematological diseases” (Bayer Intellectual Property GmbH, priority 2005, dated 2015):
Counter-ions that a name gives are not always drawn.

Tests used:
[1] = test system: recombinant A549 cell line with HRE-controlled luciferase reporter; assay: Cellular, functional in vitro test: luciferase reporter under hypoxia-responsible elements in recombinant A549 cell line; type: cell-based; conditions: Homo sapiens, luciferase light signal six to 24 hours after addition of test substance
Source text: The activity of the compounds according to the invention is quantified with the aid of a recombinant cell line. The cell is originally derived from a human lung carcinoma cell line (A549, ATCC: American Type Culture Collection, Manassas, Va. 20108, USA). The test cell line is transfected in a stable manner with a vector which contains the reporter gene of Photinus pyralis luciferase (called luciferase in the following) under the control of an artificial minimal promoter. The minimal promoter comprises two hypoxia-responsible elements upstream of a TATA box [Oehme F., Ellinghaus P., Kolkhof P., Smith T. J., Ramakrishnan S., Hütter J., Schramm M., Flamme I., Biochem. Biophys. Res. Commun. 296 (2), 343-9 (2002)]. Under the effect of hypoxia (e.g. culturing in the presence of 1% oxygen for 24 hours) or under the action of non-selective dioxygenase inhibitors (e.g. desferroxamine in a concentration of 100 μM, cobalt chloride in a concentration of 100 μM or N-oxalylglycine diethyl ester in a concentration of 1 mM), the test cell line produces luciferase, which can be detected and quantified with the aid of suitable bioluminescence reagents (e.g. Steady-Glo® Luciferase Assay System, Promega Corporation, Madison, Wis. 53711, USA) and a suitable luminometer.
Test Procedure: On the day before the test, the cells are plated out in an exactly calculated amount of culture medium (DMEM, 10% FCS, 2 mM glutamine) in 384- or 1,536-well microtiter plates and kept in a cell incubator (96% atmospheric humidity, 5% v/v CO2, 37° C.). On the test day, the test substances are added to the culture medium in graduated concentrations. No test substance is added to the cells in batches serving as negative controls. As a positive control for determination of the sensitivity of the cell to inhibitors, desferroxamine e.g. is added in a final concentration of 100 μM. Six to 24 hours after transfer of the test substances into the wells of the microtiter plate, the resulting light signal is measured in the luminometer. A dose/effect relationship is plotted with the aid of the measurement values, which serves as the basis for determining the half-maximum active concentration (call the EC50 value in the following).

[2] = target: HIF prolyl hydroxylase; assay: Inhibition of the activity of HIF prolyl hydroxylase (VBC complex binding to hydroxylated peptide substrate); type: biochemical; conditions: cell lysate containing prolyl hydroxylase, biotin-DLDLEMLAPYIPMDDDFQL peptide substrate
Method: Hydroxylated HIF bonds specifically to the von Hippel-Lindau protein-elongin B-elongin C complex (VBC complex). This interaction occurs only if HIF is hydroxylated on a conserved prolyl radical. It is the basis for the biochemical determination of HIF prolyl hydroxylase activity. The test is carried out as described [Oehme F., Jonghaus W., Narouz-Ott L., Huetter J., Flamme I., Anal. Biochem. 330 (1), 74-80 (2004)]:
A clear 96-well microtiter plate coated with NeutrAvidin HBC (Pierce) is incubated with blocker casein for 30 minutes. The plate is then washed three times with 200 μl each time of wash buffer (50 mM Tris, pH 7.5, 100 mM NaCl, 10% (v/v) blocker casein, 0.05% (v/v) Tween 20) per well. The peptide biotin-DLDLEMLAPYIPMDDDFQL (Eurogentec, 4102 Seraing, Belgium) is added in a concentration of 400 nM in 100 μl wash buffer. This peptide serves as a substrate for the prolyl hydroxylation and is bonded to the microtiter plate. After incubation for 30 minutes, the plate is washed three times with wash buffer, incubated with 1 mM biotin in blocker casein for 30 minutes and then washed again three times with wash buffer.
To carry out the prolyl hydroxylase reaction, the peptide substrate bonded to the plate is incubated with a cell lysate containing prolyl hydroxylase for 1 to 60 minutes. The reaction takes place in 100 μl reaction buffer (20 mM Tris, pH 7.5, 5 mM KCl, 1.5 mM MgCl2, 1 μM-1 mM 2-oxoglutarate, 10 μM FeSO4, 2 mM ascorbate) at room temperature. The reaction mixture moreover contains various concentrations of the prolyl hydroxylase inhibitor to be tested. The test substance is preferably, but not exclusively, employed at concentrations of between 1 nM and 100 μM. The reaction is stopped by washing the plate three times with wash buffer.
For quantitative determination of the prolyl hydroxylation, a fusion protein which contains both thioredoxin from E. coli and the VBC complex is added in 80 μl bonding buffer (50 mM Tris, pH 7.5, 120 mM NaCl). After 15 minutes, 10 μl of a solution of polyclonal anti-thioredoxin antibodies from rabbit in bonding buffer are added. After a further 30 minutes, 10 μl of a solution of anti-rabbit immunoglobulin coupled to horseradish peroxidase in bonding buffer are added. After incubation at room temperature for 30 minutes, the plate is washed three times with wash buffer in order to remove non-bonded VBC complex and antibodies. To determine the amount of bonded VBC complex, the plate is incubated with TMB for 15 minutes. The color reaction is ended by addition of 100 μl 1 M sulfuric acid. The amount of bonded VBC complex is determined by measurement of the optical density at 450 nm. It is proportional to the amount of hydroxylated proline in the peptide substrate.
Alternatively, a VBC complex coupled to europium (Perkin Elmer) can be used for detection of the prolyl hydroxylation. In this case, the amount of bonded VBC complex is determined by the fluorescence with respect to time. The use of VBC complex labeled with [^35S]-methionine is moreover possible. For this, the radioactively labeled VBC complex can be prepared by in vitro transcription-translation in reticulocyte lysate.

| Structure (SMILES) | EC50 [1] [µM] | IC50 [2] [µM] |
| --- | --- | --- |
| O=C(NCc1ccnc(-n2[nH]cc(-c3cccnc3)c2=O)c1)c1ccccc1 [Example 48, N-{[2-(5-Oxo-4-pyridin-3-yl-2,5-dihydro-1H-pyrazol-1-yl)pyridin-4-yl]methyl}benzamide hydrochloride] | 18.9 | 1.9 |
| O=C(CCn1cc(Cl)cn1)NCc1ccnc(-n2[nH]cc(-c3cccnc3)c2=O)c1 [Example 50, 3-(4-Chloro-1H-pyrazol-1-yl)-N-{[2-(5-oxo-4-pyridin-3-yl-2,5-dihydro-1H-pyrazol-1-yl)pyridin-4-yl]methyl}propanamide] | 7.1 | 1.9 |
| Cc1ccnc(-n2[nH]cc(-c3ccc(C#N)nc3)c2=O)c1 [Example 34, 4-(6-Cyanopyridin-3-yl)-2-(4-methylpyridin-2-yl)-1,2-dihydro-3H-pyrazol-3-one hydrochloride] | 4.7 | 0.18 |
| O=c1c(-c2cccnc2)c[nH]n1-c1ccccn1 [Example 6, 2-Pyridin-2-yl-4-pyridin-3-yl-1,2-dihydro-3H-pyrazol-3-one] | 4.9 | 0.43 |
| NCc1ccnc(-n2[nH]cc(-c3cccnc3)c2=O)c1 [Example 35, 2-[4-(Aminomethyl)pyridin-2-yl]-4-pyridin-3-yl-1,2-dihydro-3H-pyrazol-3-one dihydrochloride] | 17.2 | 2.3 |
| O=C(Cc1ccccc1)NCc1ccnc(-n2[nH]cc(-c3cccnc3)c2=O)c1 [Example 46, N-{[2-(5-Oxo-4-pyridin-3-yl-2,5-dihydro-1H-pyrazol-1-yl)pyridin-4-yl]methyl}-2-phenylacetamide hydrochloride] | 7.4 | 0.7 |
| O=c1c(-c2cccnc2)c[nH]n1-c1cc(CO)ccn1 [Example 43, 2-[4-(Hydroxymethyl)pyridin-2-yl]-4-pyridin-3-yl-1,2-dihydro-3H-pyrazol-3-one hydrochloride] | 7.6 | 1.5 |
| Cc1ncccc1-c1c[nH]n(-c2ccccn2)c1=O [Example 26] | 6 | 0.76 |
| CC(=O)NCc1ccnc(-n2[nH]cc(-c3cccnc3)c2=O)c1 [Example 47, N-{[2-(5-Oxo-4-pyridin-3-yl-2,5-dihydro-1H-pyrazol-1-yl)pyridin-4-yl]methyl}acetamide hydrochloride] | 12.4 | 2.2 |
| O=c1c(-c2cccnc2)c[nH]n1-c1ccc(CO)cn1 [Example 23, 2-(5-Hydroxymethyl-pyridin-2-yl)-4-pyridin-3-yl-1,2-dihydro-3H-pyrazol-3-one hydrochloride] | 13.4 | 0.86 |
